Test results reported in US20220023289A1, “Application Of Pyrroloquinoline Quinone In Preparation Of Medicament Used For Preventing And Treating Acute Altitude Sickness And Acute Altitude Hypoxia Injury” (priority 2018, published 2022).

Key:
[1] = system: rats exposed to acute altitude hypoxia; experiment: Lipid metabolism in rats exposed to acute altitude hypoxia; type: in vivo, Wistar rat; conditions: for effect on triglycerides: male rats exposed to hypoxia
Description: Select healthy Wistar rats weight 160-200 g, half female and half male. After feeding for 3 days, these Wistar rats are randomly divided into ten groups according to their body weight, each group has 16±2 rats. The groups are divided as follows: five groups of the hypoxic exposure drug test group, respectively, are given 0.91 mg/kg, 1.83 mg/kg, 3.66 mg/kg, 7.31 mg/kg, and 14.63 mg/kg drugs. […] After continuous intragastric administration for 7 days, the animals in the hypoxic exposure group are simultaneously put into the decompression and hypoxia compound experimental chamber, the hatch is closed, and the pressure is reduced at a speed of 10 m/s. After being raised to an altitude of 6000 m and maintained for 8 hours, the speed in 10 m/s drops is reduced to normal altitude, open the hatch, and then take out the animal, collect blood samples (after standing for 1 hour, the supernatant is centrifuged and stored at −20° C.), and liver tissue samples. Detection indicator includes body weight, serum blood glucose, ATP, lactic acid, endothelin, nitric oxide, SOD, CO, MDA related to oxidative stress, and total protein, albumin, triglycerides, total cholesterol, high-density lipoprotein cholesterol, low-density lipoprotein cholesterol, glutamic pyruvic transaminase, total bilirubin, gluamic oxalacetic transaminase, serum urea nitrogen, creatinine, uric acid, lactate dehydrogenase, creatine kinase, α-hydroxybutyrate dehydrogenase; liver ATP, hepatic glycogen. Except that the formal oxygen control animal group is not put into the decompression and hypoxia compound experimental chamber, other experimental conditions and detection indicators are the same.
Measure blood glucose, total protein, albumin, triglycerides, total cholesterol, high-density lipoprotein cholesterol, low-density lipoprotein cholesterol, glutamic-pyruvic transaminase, total bilirubin, glutamic oxalacetic transaminase, serum urea nitrogen, creatinine, uric acid, lactate dehydrogenase, creatine kinase, α-hydroxybutyrate dehydrogenase, blood homocysteine by using an automatic blood biochemical analyzer.

[2] = system: rats with acute altitude hypoxia injury; experiment: Serum energy metabolism indexes (ATP, lactic acid) in rats with acute altitude hypoxia injury; type: in vivo, Wistar rat
Description: Determination of adenosine triphosphate (ATP): Perform enzyme-linked immunosorbent assay by double-antibody one-step sandwich method. To the coated microwells pre-coated with rat adenosine triphosphate (ATP) capture antibody, add in sequence the specimens, standard, and HRP-labeled detection antibody, and then incubate and wash thoroughly. Use a substrate TMB for color development, TMB is converted into blue under the catalysis of peroxidase and converted into the final yellow color under the action of acid. The color intensity is positively correlated with the rat adenosine triphosphate (ATP) in the sample. […] Determination of lactic acid (LC): Perform enzyme-linked immunosorbent assay by double-antibody one-step sandwich method. To the coated microwells pre-coated with rat lactic acid (LC) capture antibody, add in sequence the specimens, standard, and HRP-labeled detection antibody, and then incubate and wash thoroughly. Use a substrate TMB for color development. TMB is converted into blue under the catalysis of peroxidase and converted into the final yellow color under the action of acid. The color intensity is positively correlated with the rat lactic acid (LC) in the sample.

[3] = Body weight of male mice in exhaustive swimming experiment; conditions: 0.16 g/kg
Description: Select healthy male Kunming mice weight 18-22 g. After feeding for 3 days, they are randomly divided into seven groups according to their body weight, each group has 10±1 mice. The groups are divided as follows: 5 groups of the drug test group, respectively, are given 1.32 mg/kg, 2.64 mg/kg, 5.28 mg/kg, 10.56 mg/kg, and 21.12 mg/kg drugs by gavage administration. […] After administration for 7 days, select an exhaustive swimming experiment under hypoxic conditions perform physical work ability evaluation; the observation index is an exhaustive swimming time. In the decompression and hypoxia compound laboratory chamber, decompression hypoxia is performed to an altitude of 6000 m, the swimming box is filled with water at a depth of 40 cm and the water temperature is 25° C. The animal is placed in the swimming box, and use a stopwatch to record a time from the start of swimming to exhaustion of the animal. Exhaustive swimming time is the time when an animal still cannot surface for 9 s after sinking.

[4] = female rats, hypoxia, 0.11 g/kg
[5] = female rats, normoxia, 0.11 g/kg
[6] = female rats, hypoxia, 0.91 mg/kg
[7] = female rats, hypoxia, 1.83 mg/kg
[8] = female rats, hypoxia, 3.66 mg/kg
[9] = female rats, hypoxia, 7.31 mg/kg
[10] = female rats, hypoxia, 14.63 mg/kg
[11] = female rats, normoxia, 3.66 mg/kg
[12] = male rats, hypoxia, 14.63 mg/kg

CC(=O)Nc1nnc(S(N)(=O)=O)s1 [Acetazolamide, reference compound]
High density lipoprotein cholesterol [1, 4]: 1.55 ± 0.19 mmol/L | Low density lipoprotein cholesterol [1, 4]: 0.17 ± 0.04 mmol/L | Total cholesterol [1, 4]: 2.02 ± 0.20 mmol/L | effect on low-density lipoprotein cholesterol ([1]; female rats, normoxia): no significant effects | effect on total cholesterol and high-density lipoprotein cholesterol ([1]; female rats, normoxia): can increase | High density lipoprotein cholesterol [1, 5]: 1.67 ± 0.07 mmol/L | Low density lipoprotein cholesterol [1, 5]: 0.16 ± 0.02 mmol/L | Total cholesterol [1, 5]: 2.14 ± 0.10 mmol/L | effect on total cholesterol, low-density and high-density lipoprotein cholesterol ([1]; hypoxia exposed female rats): increasing | effect on total, high-density and low-density lipoprotein cholesterol ([1]; male rats): no significant effect | effect on triglycerides [1]: is not found | High density lipoprotein cholesterol ([1]; male rats, hypoxia, 0.11 g/kg): 1.39 ± 0.14 mmol/L | Low density lipoprotein cholesterol ([1]; male rats, hypoxia, 0.11 g/kg): 0.21 ± 0.05 mmol/L | Total cholesterol ([1]; male rats, hypoxia, 0.11 g/kg): 1.88 ± 0.21 mmol/L | Triglycerides ([1]; male rats, hypoxia, 0.11 g/kg): 1.05 ± 0.49 mmol/L | serum Lactic acid [2, 4]: 132.16 ± 10.42 ng/L | effect on serum ATP and lactic acid content ([2]; female rats, last sentence of b195 (normoxia per Table 37)): reducing | serum Lactic acid [2, 5]: 100.54 ± 7.13 ng/L | effect on serum ATP and lactic acid content ([2]; hypoxia exposed female rats): no significant effects | effect on serum ATP ([2]; male rats): no significant effects | effect on serum lactic acid content ([2]; male rats): reducing | serum Lactic acid ([2]; male rats, hypoxia, 0.11 g/kg): 161.46 ± 6.94 ng/L | body weight male 1 day [3]: 21.28 ± 1.38 g | body weight male 7 days [3]: 23.05 ± 4.41 g

O=C(O)c1cc(C(=O)O)c2c(n1)C(=O)C(=O)c1cc(C(=O)O)[nH]c1-2 [PQQ, pyrroloquinoline quinone]
High density lipoprotein cholesterol [1, 6]: 1.30 ± 0.07 mmol/L | Low density lipoprotein cholesterol [1, 6]: 0.12 ± 0.01 mmol/L | Total cholesterol [1, 6]: 1.69 ± 0.11 mmol/L | High density lipoprotein cholesterol [1, 7]: 1.18 ± 0.14 mmol/L | Low density lipoprotein cholesterol [1, 7]: 0.10 ± 0.02 mmol/L | Total cholesterol [1, 7]: 1.56 ± 0.17 mmol/L | High density lipoprotein cholesterol [1, 8]: 1.14 ± 0.10 mmol/L | Low density lipoprotein cholesterol [1, 8]: 0.10 ± 0.02 mmol/L | Total cholesterol [1, 8]: 1.47 ± 0.11 mmol/L | High density lipoprotein cholesterol [1, 9]: 1.27 ± 0.09 mmol/L | Low density lipoprotein cholesterol [1, 9]: 0.10 ± 0.02 mmol/L | Total cholesterol [1, 9]: 1.69 ± 0.09 mmol/L | High density lipoprotein cholesterol [1, 10]: 1.28 ± 0.11 mmol/L | Low density lipoprotein cholesterol [1, 10]: 0.11 ± 0.02 mmol/L | Total cholesterol [1, 10]: 1.64 ± 0.13 mmol/L | effect on total cholesterol, low-density and high-density lipoprotein cholesterol ([1]; female rats, normoxia): no significant effects | High density lipoprotein cholesterol [1, 11]: 1.39 ± 0.10 mmol/L | Low density lipoprotein cholesterol [1, 11]: 0.14 ± 0.03 mmol/L | Total cholesterol [1, 11]: 1.87 ± 0.10 mmol/L | effect on total cholesterol, low-density and high-density lipoprotein cholesterol ([1]; hypoxia exposed female rats): no significant effects | effect on triglycerides [1]: is not found | High density lipoprotein cholesterol ([1]; male rats, hypoxia, 0.91 mg/kg): 1.03 ± 0.09 mmol/L | Low density lipoprotein cholesterol ([1]; male rats, hypoxia, 0.91 mg/kg): 0.16 ± 0.03 mmol/L | Total cholesterol ([1]; male rats, hypoxia, 0.91 mg/kg): 1.47 ± 0.15 mmol/L | Triglycerides ([1]; male rats, hypoxia, 0.91 mg/kg): 1.25 ± 0.64 mmol/L | High density lipoprotein cholesterol ([1]; male rats, hypoxia, 1.83 mg/kg): 1.23 ± 0.11 mmol/L | Low density lipoprotein cholesterol ([1]; male rats, hypoxia, 1.83 mg/kg): 0.20 ± 0.02 mmol/L | Total cholesterol ([1]; male rats, hypoxia, 1.83 mg/kg): 1.71 ± 0.90 mmol/L | Triglycerides ([1]; male rats, hypoxia, 1.83 mg/kg): 1.06 ± 0.35 mmol/L | High density lipoprotein cholesterol ([1]; male rats, hypoxia, 3.66 mg/kg): 1.28 ± 0.09 mmol/L | Low density lipoprotein cholesterol ([1]; male rats, hypoxia, 3.66 mg/kg): 0.19 ± 0.04 mmol/L | Total cholesterol ([1]; male rats, hypoxia, 3.66 mg/kg): 1.80 ± 0.16 mmol/L | Triglycerides ([1]; male rats, hypoxia, 3.66 mg/kg): 1.36 ± 0.58 mmol/L | High density lipoprotein cholesterol ([1]; male rats, hypoxia, 7.31 mg/kg): 1.23 ± 0.10 mmol/L | Low density lipoprotein cholesterol ([1]; male rats, hypoxia, 7.31 mg/kg): 0.16 ± 0.02 mmol/L | Total cholesterol ([1]; male rats, hypoxia, 7.31 mg/kg): 1.69 ± 0.10 mmol/L | Triglycerides ([1]; male rats, hypoxia, 7.31 mg/kg): 1.35 ± 0.36 mmol/L | High density lipoprotein cholesterol [1, 12]: 1.44 ± 0.15 mmol/L | Low density lipoprotein cholesterol [1, 12]: 0.19 ± 0.03 mmol/L | Total cholesterol [1, 12]: 1.95 ± 0.15 mmol/L | Triglycerides [1, 12]: 1.40 ± 0.74 mmol/L | effect on low density lipoprotein cholesterol ([1]; male rats, low-dose): no significant effects | effect on total cholesterol and high-density lipoprotein cholesterol ([1]; male rats, low-dose): reducing the amount | serum Lactic acid [2, 6]: 222.06 ± 12.56 ng/L | serum Lactic acid [2, 7]: 221.04 ± 14.36 ng/L | serum Lactic acid [2, 8]: 242.8 ± 8.13 ng/L | serum Lactic acid [2, 9]: 196.41 ± 11.86 ng/L | serum Lactic acid [2, 10]: 173.09 ± 24.20 ng/L | effect on serum ATP content ([2]; female rats, normoxia): no significant effect | effect on serum lactic acid content ([2]; female rats, normoxia): reducing | serum Lactic acid [2, 11]: 116.73 ± 13.32 ng/L | effect on serum ATP and lactic acid content ([2]; hypoxia exposed female rats): increasing | effect on serum ATP and lactic acid content ([2]; male rats): no significant effects | serum Lactic acid ([2]; male rats, hypoxia, 0.91 mg/kg): 188.70 ± 29.68 ng/L | serum Lactic acid ([2]; male rats, hypoxia, 1.83 mg/kg): 177.33 ± 19.55 ng/L | serum Lactic acid ([2]; male rats, hypoxia, 3.66 mg/kg): 189.12 ± 24.64 ng/L | serum Lactic acid ([2]; male rats, hypoxia, 7.31 mg/kg): 172.64 ± 12.25 ng/L | serum Lactic acid [2, 12]: 180.81 ± 24.64 ng/L
